Experimental data: the kinase profiling compilation of Christmann-Franck et al. (2016)
One block for each compound: values may come before it.

Columns and labels:
Assay in all cases: radiometric filter-binding kinase assay
EPHB4 (human) = EPHB4 (human) (UniProt P54760)
STK3 (human) = STK3 (human) (UniProt Q13188)
DAPK1 (human) = DAPK1 (human) (UniProt P53355)
MARK2 (human) = MARK2 (human) (UniProt Q7KZI7)
RPS6KA1 KD1 KD2 (human) = RPS6KA1 KD1 KD2 (human) (UniProt Q15418)
GCK (human) = GCK (human) (UniProt Q12851)
TTK (human) = TTK (human) (UniProt P33981)
HIPK2 (human) = HIPK2 (human) (UniProt Q9H2X6)
MAPK12 (human) = MAPK12 (human) (UniProt P53778)
MAPKAPK5 (human) = MAPKAPK5 (human) (UniProt Q8IW41)
[1] = test system: RPS6KB1 (human), P23443 [T412E]
EPHB1 (human) = EPHB1 (human) (UniProt P54762)
IKBKE (human) = IKBKE (human) (UniProt Q14164)
DYRK3 (human) = DYRK3 (human) (UniProt O43781)
EPHB2 (human) = EPHB2 (human) (UniProt P29323)
FLT1 (human) = FLT1 (human) (UniProt P17948)
MYLK (human) = MYLK (human) (UniProt Q15746)
[2] = test system: SGK1 (human), O00141 [S422D]
MARK1 (human) = MARK1 (human) (UniProt Q9P0L2)
MAPKAPK2 (human) = MAPKAPK2 (human) (UniProt P49137)
NEK2 (human) = NEK2 (human) (UniProt P51955)
CLK2 (human) = CLK2 (human) (UniProt P49760)
CHEK2 (human) = CHEK2 (human) (UniProt O96017)
MAPK14 (human) = MAPK14 (human) (UniProt Q16539)
PIM1 (human) = PIM1 (human) (UniProt P11309)
ROCK2 (rat) = conditions: accession and sequence are those of the human protein
PKN2 (human) = PKN2 (human) (UniProt Q16513)
MAP3K7 TAB1 (human) = MAP3K7 TAB1 (human) (UniProt Q15750+O43318)
DYRK2 (human) = DYRK2 (human) (UniProt Q92630)
IRAK4 (human) = IRAK4 (human) (UniProt Q9NWZ3)
EPHA2 (human) = EPHA2 (human) (UniProt P29317)
PIM3 (human) = PIM3 (human) (UniProt Q86V86)
PRKCA (human) = PRKCA (human) (UniProt P17252)
TAOK1 (human) = TAOK1 (human) (UniProt Q7L7X3)
MELK (human) = MELK (human) (UniProt Q14680)

GCK (human), sequence (Q12851 whole entry, looked up): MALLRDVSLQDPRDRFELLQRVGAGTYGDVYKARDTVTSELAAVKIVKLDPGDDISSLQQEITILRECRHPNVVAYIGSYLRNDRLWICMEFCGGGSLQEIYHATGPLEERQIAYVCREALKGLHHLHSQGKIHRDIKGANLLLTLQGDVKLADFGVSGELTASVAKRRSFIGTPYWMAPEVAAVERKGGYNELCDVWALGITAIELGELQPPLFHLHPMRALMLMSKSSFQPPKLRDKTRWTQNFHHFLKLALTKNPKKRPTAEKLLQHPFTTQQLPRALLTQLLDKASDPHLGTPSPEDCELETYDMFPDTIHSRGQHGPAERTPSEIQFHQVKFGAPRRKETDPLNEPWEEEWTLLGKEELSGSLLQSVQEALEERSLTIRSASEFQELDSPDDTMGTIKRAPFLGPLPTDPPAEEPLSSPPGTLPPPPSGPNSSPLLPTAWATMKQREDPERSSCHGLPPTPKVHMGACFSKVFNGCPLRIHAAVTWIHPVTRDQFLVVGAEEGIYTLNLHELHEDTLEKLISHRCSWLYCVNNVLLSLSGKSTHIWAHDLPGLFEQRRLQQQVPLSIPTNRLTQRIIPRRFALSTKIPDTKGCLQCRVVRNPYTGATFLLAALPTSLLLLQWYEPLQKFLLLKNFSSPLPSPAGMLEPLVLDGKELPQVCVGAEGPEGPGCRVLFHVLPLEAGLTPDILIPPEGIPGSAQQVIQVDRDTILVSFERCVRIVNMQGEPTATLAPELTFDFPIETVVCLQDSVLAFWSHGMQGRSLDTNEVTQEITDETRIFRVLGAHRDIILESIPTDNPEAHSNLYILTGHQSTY
EPHB2 (human), sequence (P29323 whole entry, looked up): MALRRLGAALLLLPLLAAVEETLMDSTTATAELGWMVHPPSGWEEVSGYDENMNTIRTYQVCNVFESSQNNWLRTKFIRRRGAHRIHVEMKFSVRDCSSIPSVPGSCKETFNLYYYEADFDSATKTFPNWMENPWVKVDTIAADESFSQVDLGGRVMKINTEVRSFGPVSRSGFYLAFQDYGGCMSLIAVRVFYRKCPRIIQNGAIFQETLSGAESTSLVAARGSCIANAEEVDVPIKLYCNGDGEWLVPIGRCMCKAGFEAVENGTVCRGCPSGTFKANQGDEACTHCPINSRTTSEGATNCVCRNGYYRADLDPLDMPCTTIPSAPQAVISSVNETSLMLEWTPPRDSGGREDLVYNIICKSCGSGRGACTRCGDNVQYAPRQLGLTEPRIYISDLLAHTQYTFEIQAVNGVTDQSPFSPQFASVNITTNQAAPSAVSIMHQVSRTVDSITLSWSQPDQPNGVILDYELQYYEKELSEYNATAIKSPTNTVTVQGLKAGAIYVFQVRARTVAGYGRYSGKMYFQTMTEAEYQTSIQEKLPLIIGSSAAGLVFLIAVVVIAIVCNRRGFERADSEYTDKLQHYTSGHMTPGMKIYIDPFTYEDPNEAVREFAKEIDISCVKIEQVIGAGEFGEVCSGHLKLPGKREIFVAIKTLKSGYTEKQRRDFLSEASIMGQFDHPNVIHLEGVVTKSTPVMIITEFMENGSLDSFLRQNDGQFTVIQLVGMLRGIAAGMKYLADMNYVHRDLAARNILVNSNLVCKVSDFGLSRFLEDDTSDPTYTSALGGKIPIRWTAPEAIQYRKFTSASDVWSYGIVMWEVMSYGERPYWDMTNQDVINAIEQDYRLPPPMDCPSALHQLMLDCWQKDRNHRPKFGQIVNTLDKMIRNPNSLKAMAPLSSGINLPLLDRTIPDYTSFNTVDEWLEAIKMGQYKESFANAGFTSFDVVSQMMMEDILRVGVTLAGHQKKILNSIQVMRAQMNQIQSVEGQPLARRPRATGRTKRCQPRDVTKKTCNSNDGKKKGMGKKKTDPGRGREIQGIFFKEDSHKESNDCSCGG
EPHB1 (human), sequence (P54762 whole entry, looked up): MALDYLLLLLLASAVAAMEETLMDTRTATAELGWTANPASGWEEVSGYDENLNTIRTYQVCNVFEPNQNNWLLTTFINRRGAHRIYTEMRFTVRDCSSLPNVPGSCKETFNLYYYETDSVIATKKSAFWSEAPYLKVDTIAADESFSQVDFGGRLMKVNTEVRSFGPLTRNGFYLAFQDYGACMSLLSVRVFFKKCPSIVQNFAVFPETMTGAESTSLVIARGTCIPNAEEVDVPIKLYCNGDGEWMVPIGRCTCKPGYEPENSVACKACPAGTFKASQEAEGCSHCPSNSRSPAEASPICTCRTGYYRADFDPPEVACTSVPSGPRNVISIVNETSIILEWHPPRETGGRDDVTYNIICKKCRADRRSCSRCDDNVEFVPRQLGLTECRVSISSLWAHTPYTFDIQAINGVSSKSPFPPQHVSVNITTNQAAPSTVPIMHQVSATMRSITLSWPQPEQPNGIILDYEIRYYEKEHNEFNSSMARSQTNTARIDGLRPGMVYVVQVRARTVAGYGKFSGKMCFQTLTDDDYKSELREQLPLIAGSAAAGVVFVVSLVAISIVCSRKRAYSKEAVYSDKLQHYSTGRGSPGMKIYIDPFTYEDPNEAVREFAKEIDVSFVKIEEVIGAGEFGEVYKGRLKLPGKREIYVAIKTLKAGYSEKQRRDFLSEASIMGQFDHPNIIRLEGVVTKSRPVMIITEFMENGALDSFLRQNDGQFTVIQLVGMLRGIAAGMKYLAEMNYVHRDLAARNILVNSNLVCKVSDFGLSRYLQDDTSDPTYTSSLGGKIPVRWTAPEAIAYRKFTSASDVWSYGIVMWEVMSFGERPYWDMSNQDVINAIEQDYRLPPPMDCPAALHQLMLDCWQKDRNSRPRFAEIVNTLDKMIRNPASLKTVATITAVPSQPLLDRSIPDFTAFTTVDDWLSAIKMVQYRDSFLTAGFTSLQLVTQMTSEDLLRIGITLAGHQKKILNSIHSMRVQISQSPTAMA
MAP3K7 TAB1 (human), sequence (O43318 whole entry, looked up): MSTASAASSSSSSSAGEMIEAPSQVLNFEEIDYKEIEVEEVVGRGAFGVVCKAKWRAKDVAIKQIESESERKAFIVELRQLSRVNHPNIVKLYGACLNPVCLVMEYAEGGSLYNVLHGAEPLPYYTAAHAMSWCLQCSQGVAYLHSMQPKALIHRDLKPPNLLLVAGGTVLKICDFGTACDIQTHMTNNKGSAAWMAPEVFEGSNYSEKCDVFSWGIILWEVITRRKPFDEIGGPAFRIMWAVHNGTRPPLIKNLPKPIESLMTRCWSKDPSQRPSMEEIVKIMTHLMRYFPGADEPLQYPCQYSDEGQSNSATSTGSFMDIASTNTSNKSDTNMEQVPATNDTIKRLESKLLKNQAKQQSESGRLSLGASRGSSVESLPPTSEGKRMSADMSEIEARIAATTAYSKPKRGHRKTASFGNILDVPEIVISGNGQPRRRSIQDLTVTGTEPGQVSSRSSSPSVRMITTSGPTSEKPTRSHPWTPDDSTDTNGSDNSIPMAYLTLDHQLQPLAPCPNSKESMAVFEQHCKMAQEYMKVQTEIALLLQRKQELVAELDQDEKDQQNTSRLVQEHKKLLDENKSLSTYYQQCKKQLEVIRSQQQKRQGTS
MAP3K7 TAB1 (human), sequence (Q15750 whole entry, looked up): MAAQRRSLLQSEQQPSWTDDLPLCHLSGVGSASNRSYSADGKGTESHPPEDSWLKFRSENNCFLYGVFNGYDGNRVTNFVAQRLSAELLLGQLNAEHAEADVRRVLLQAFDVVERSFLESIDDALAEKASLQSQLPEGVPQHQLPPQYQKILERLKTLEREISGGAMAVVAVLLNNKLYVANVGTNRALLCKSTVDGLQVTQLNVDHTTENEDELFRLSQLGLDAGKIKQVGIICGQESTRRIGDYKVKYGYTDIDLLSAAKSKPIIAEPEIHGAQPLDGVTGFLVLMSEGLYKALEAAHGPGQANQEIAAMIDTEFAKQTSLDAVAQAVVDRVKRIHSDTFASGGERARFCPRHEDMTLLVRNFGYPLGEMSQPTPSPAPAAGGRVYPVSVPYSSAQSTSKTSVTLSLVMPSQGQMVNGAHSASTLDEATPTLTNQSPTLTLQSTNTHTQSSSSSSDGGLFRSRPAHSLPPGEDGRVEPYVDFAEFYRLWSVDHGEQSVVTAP
MAPKAPK2 (human), sequence (P49137 whole entry, looked up): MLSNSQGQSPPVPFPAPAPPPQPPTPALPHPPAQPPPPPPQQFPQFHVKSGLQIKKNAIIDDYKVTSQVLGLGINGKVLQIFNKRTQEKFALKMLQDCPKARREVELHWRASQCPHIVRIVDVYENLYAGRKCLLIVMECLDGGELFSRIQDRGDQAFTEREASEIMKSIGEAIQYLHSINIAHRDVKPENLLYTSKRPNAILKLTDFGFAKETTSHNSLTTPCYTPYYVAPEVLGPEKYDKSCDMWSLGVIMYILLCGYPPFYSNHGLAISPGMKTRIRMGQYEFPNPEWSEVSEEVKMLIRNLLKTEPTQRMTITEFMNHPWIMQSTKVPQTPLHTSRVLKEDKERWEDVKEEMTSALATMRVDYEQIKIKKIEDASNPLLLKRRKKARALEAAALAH

residual activity (EPHB4 (human); compound 1.0 µM): 91% | residual activity (EPHB4 (human); compound 10.0 µM): 99% | residual activity (STK3 (human); compound 1.0 µM): 102% | residual activity (STK3 (human); compound 10.0 µM): 101% | residual activity (DAPK1 (human); compound 1.0 µM): 95% | residual activity (DAPK1 (human); compound 10.0 µM): 104% | residual activity (MARK2 (human); compound 1.0 µM): 99% | residual activity (MARK2 (human); compound 10.0 µM): 104% | residual activity (RPS6KA1 KD1 KD2 (human); compound 1.0 µM): 98% | residual activity (RPS6KA1 KD1 KD2 (human); compound 10.0 µM): 97% | residual activity (GCK (human); compound 1.0 µM): 103% | residual activity (GCK (human); compound 10.0 µM): 114% | residual activity (TTK (human); compound 1.0 µM): 104% | residual activity (TTK (human); compound 10.0 µM): 118% | residual activity (HIPK2 (human); compound 1.0 µM): 107% | residual activity (HIPK2 (human); compound 10.0 µM): 103% | residual activity (MAPK12 (human); compound 1.0 µM): 109% | residual activity (MAPK12 (human); compound 10.0 µM): 108% | residual activity (MAPKAPK5 (human); compound 1.0 µM): 86% | residual activity (MAPKAPK5 (human); compound 10.0 µM): 87% | residual activity ([1]; compound 1.0 µM): 94% | residual activity ([1]; compound 10.0 µM): 93% | residual activity (EPHB1 (human); compound 1.0 µM): 115% | residual activity (EPHB1 (human); compound 10.0 µM): 126% | residual activity (IKBKE (human); compound 1.0 µM): 119% | residual activity (IKBKE (human); compound 10.0 µM): 99% | residual activity (DYRK3 (human); compound 1.0 µM): 104% | residual activity (DYRK3 (human); compound 10.0 µM): 99% | residual activity (EPHB2 (human); compound 1.0 µM): 107% | residual activity (EPHB2 (human); compound 10.0 µM): 113% | residual activity (FLT1 (human); compound 1.0 µM): 100% | residual activity (FLT1 (human); compound 10.0 µM): 110% | residual activity (MYLK (human); compound 1.0 µM): 94% | residual activity (MYLK (human); compound 10.0 µM): 94% | residual activity ([2]; compound 1.0 µM): 91% | residual activity (MARK1 (human); compound 1.0 µM): 98% | residual activity (MARK1 (human); compound 10.0 µM): 100% | residual activity (MAPKAPK2 (human); compound 1.0 µM): 79% | residual activity (MAPKAPK2 (human); compound 10.0 µM): 92% | residual activity (NEK2 (human); compound 1.0 µM): 97% | residual activity (NEK2 (human); compound 10.0 µM): 96% | residual activity (CLK2 (human); compound 1.0 µM): 104% | residual activity (CLK2 (human); compound 10.0 µM): 98% | residual activity (CHEK2 (human); compound 1.0 µM): 96% | residual activity (CHEK2 (human); compound 10.0 µM): 93% | residual activity (MAPK14 (human); compound 1.0 µM): 105% | residual activity (MAPK14 (human); compound 10.0 µM): 103% | residual activity (PIM1 (human); compound 1.0 µM): 93% | residual activity (PIM1 (human); compound 10.0 µM): 87% | residual activity (ROCK2 (rat); compound 1.0 µM): 90% | residual activity (ROCK2 (rat); compound 10.0 µM): 88% | residual activity (PKN2 (human); compound 1.0 µM): 93% | residual activity (PKN2 (human); compound 10.0 µM): 88% | residual activity (MAP3K7 TAB1 (human); compound 1.0 µM): 99% | residual activity (MAP3K7 TAB1 (human); compound 10.0 µM): 104% | residual activity (DYRK2 (human); compound 1.0 µM): 101% | residual activity (DYRK2 (human); compound 10.0 µM): 103% | residual activity (IRAK4 (human); compound 1.0 µM): 107% | residual activity (IRAK4 (human); compound 10.0 µM): 110% | residual activity (EPHA2 (human); compound 10.0 µM): 96% | residual activity (PIM3 (human); compound 1.0 µM): 101% | residual activity (PIM3 (human); compound 10.0 µM): 103% | residual activity (PRKCA (human); compound 1.0 µM): 107% | residual activity (PRKCA (human); compound 10.0 µM): 100% | residual activity (TAOK1 (human); compound 1.0 µM): 106% | residual activity (TAOK1 (human); compound 10.0 µM): 96% | residual activity (MELK (human); compound 1.0 µM): 94% | residual activity (MELK (human); compound 10.0 µM): 90%
Compound: Nc1cccc2c1CN(C1CCC(=O)NC1=O)C2=O (stereo not given)

residual activity (EPHB4 (human); compound 0.1 µM): 122% | residual activity (STK3 (human); compound 0.1 µM): 68% | residual activity (STK3 (human); compound 1.0 µM): 22% | residual activity (STK3 (human); compound 10.0 µM): 4% | residual activity (DAPK1 (human); compound 0.1 µM): 87% | residual activity (MARK2 (human); compound 0.1 µM): 88% | residual activity (RPS6KA1 KD1 KD2 (human); compound 0.1 µM): 102% | residual activity (RPS6KA1 KD1 KD2 (human); compound 1.0 µM): 93% | residual activity (RPS6KA1 KD1 KD2 (human); compound 10.0 µM): 38% | residual activity (GCK (human); compound 0.1 µM): 8% | residual activity (GCK (human); compound 1.0 µM): 3% | residual activity (GCK (human); compound 10.0 µM): 1% | residual activity (TTK (human); compound 0.1 µM): 89% | residual activity (TTK (human); compound 1.0 µM): 79% | residual activity (TTK (human); compound 10.0 µM): 46% | residual activity (HIPK2 (human); compound 0.1 µM): 70% | residual activity (HIPK2 (human); compound 1.0 µM): 58% | residual activity (HIPK2 (human); compound 10.0 µM): 15% | residual activity (MAPK12 (human); compound 0.1 µM): 106% | residual activity (MAPK12 (human); compound 1.0 µM): 104% | residual activity (MAPK12 (human); compound 10.0 µM): 35% | residual activity (MAPKAPK5 (human); compound 0.1 µM): 107% | residual activity (MAPKAPK5 (human); compound 1.0 µM): 77% | residual activity (MAPKAPK5 (human); compound 10.0 µM): 73% | residual activity ([1]; compound 0.1 µM): 100% | residual activity ([1]; compound 1.0 µM): 74% | residual activity ([1]; compound 10.0 µM): 24% | residual activity (EPHB1 (human); compound 0.1 µM): 94% | residual activity (IKBKE (human); compound 0.1 µM): 91% | residual activity (IKBKE (human); compound 1.0 µM): 44% | residual activity (IKBKE (human); compound 10.0 µM): 14% | residual activity (DYRK3 (human); compound 0.1 µM): 79% | residual activity (DYRK3 (human); compound 1.0 µM): 57% | residual activity (DYRK3 (human); compound 10.0 µM): 17% | residual activity (EPHB2 (human); compound 0.1 µM): 86% | residual activity (FLT1 (human); compound 0.1 µM): 98% | residual activity (FLT1 (human); compound 1.0 µM): 63% | residual activity (FLT1 (human); compound 10.0 µM): 15% | residual activity (MYLK (human); compound 0.1 µM): 87% | residual activity (MYLK (human); compound 1.0 µM): 102% | residual activity (MYLK (human); compound 10.0 µM): 87% | residual activity ([2]; compound 0.1 µM): 56% | residual activity ([2]; compound 1.0 µM): 9% | residual activity ([2]; compound 10.0 µM): 1% | residual activity (MARK1 (human); compound 0.1 µM): 97% | residual activity (MAPKAPK2 (human); compound 0.1 µM): 107% | residual activity (MAPKAPK2 (human); compound 1.0 µM): 103% | residual activity (MAPKAPK2 (human); compound 10.0 µM): 96% | residual activity (NEK2 (human); compound 0.1 µM): 114% | residual activity (NEK2 (human); compound 1.0 µM): 60% | residual activity (NEK2 (human); compound 10.0 µM): 27% | residual activity (CLK2 (human); compound 0.1 µM): 65% | residual activity (CHEK2 (human); compound 0.1 µM): 83% | residual activity (CHEK2 (human); compound 1.0 µM): 40% | residual activity (CHEK2 (human); compound 10.0 µM): 28% | residual activity (MAPK14 (human); compound 0.1 µM): 94% | residual activity (MAPK14 (human); compound 1.0 µM): 119% | residual activity (MAPK14 (human); compound 10.0 µM): 106% | residual activity (PIM1 (human); compound 0.1 µM): 91% | residual activity (PIM1 (human); compound 1.0 µM): 62% | residual activity (PIM1 (human); compound 10.0 µM): 26% | residual activity (ROCK2 (rat); compound 0.1 µM): 84% | residual activity (ROCK2 (rat); compound 1.0 µM): 59% | residual activity (ROCK2 (rat); compound 10.0 µM): 33% | residual activity (PKN2 (human); compound 0.1 µM): 76% | residual activity (PKN2 (human); compound 1.0 µM): 31% | residual activity (PKN2 (human); compound 10.0 µM): 5% | residual activity (MAP3K7 TAB1 (human); compound 0.1 µM): 115% | residual activity (DYRK2 (human); compound 0.1 µM): 101% | residual activity (DYRK2 (human); compound 1.0 µM): 20% | residual activity (DYRK2 (human); compound 10.0 µM): 2% | residual activity (IRAK4 (human); compound 0.1 µM): 20% | residual activity (IRAK4 (human); compound 1.0 µM): 12% | residual activity (IRAK4 (human); compound 10.0 µM): 12% | residual activity (EPHA2 (human); compound 0.1 µM): 92% | residual activity (EPHA2 (human); compound 1.0 µM): 97% | residual activity (EPHA2 (human); compound 10.0 µM): 85% | residual activity (PIM3 (human); compound 0.1 µM): 90% | residual activity (PIM3 (human); compound 1.0 µM): 86% | residual activity (PIM3 (human); compound 10.0 µM): 45% | residual activity (PRKCA (human); compound 0.1 µM): 100% | residual activity (PRKCA (human); compound 1.0 µM): 61% | residual activity (PRKCA (human); compound 10.0 µM): 33% | residual activity (TAOK1 (human); compound 0.1 µM): 98% | residual activity (MELK (human); compound 0.1 µM): 100% | residual activity (MELK (human); compound 1.0 µM): 27% | residual activity (MELK (human); compound 10.0 µM): 8%
Compound: O=C(O)c1ccc(-c2c[nH]c3ncc(-c4ccccc4)cc23)cc1C1CCCC1
